What was measured:
[1] = system: HssRS-dependent hrtAB expression; assay: Luminescence-based assay to monitor HssRS-dependent hrtAB expression (phrtABlux reporter), Newman; type: cell-based, Staphylococcus aureus; conditions: Newman; for activation at 0.0825 µM: Staphylococcus aureus, NEWMAN, read-out: % Lumi, luminescence induced by the compound compared to the heme control (82.5 nM) in the same plate; for Luminescence: raw luminescence value obtained in a luminometer
Description: (§1) With reference to Table 1, “Luminescence” refers to the raw luminescence value obtained in a luminomter. “Control (82.5 nm)” refers to the luminescence value obtained from heme at 82.5 nM as a positive control in the same plate as the experimental. “% lum” is the percentage of luminescence induced by the compound as compared to the heme control in the same plate. […] All of these assays are described in the application. […] “N/T” indicates the test was not performed.
A hrtAB-driven expression system was created in the pXen vector system (Xenogen) (Francis, K. P., D. Joh, C. Bellinger-Kawahara, M. J. Hawkinson, T. F. Purchio, and P. R. Contag. 2000. Monitoring bioluminescent Staphylococcus aureus infections in living mice using a novel luxABCDE construct. Infect Immun 68:3594-3600). This vector contains a promoterless luxCDABE operon from Photorabdus luminescens which produces blue green light when expressed. The luxCDABE encodes for a fatty acid reductase (LuxCDE) that produces a long chain fatty aldehyde which, when combined with cellular flavin mononucleotide, is oxidized by a luciferase (LuxAB) to produce light. Therefore, this system is useful in that it bypasses the need for substrate addition and is capable of generating light in the absence of any added reagents. Furthermore, the luminescent signal produced by the combined activities of LuxAB and LuxCDE is of sufficient intensity to be visualized in unmanipulated intact bacteria.
To establish an assay that measures HssRS-dependent expression of luxCDABE, the promoter for hrtAB upstream of luxCDABE was cloned and transformed this vector (phrtABlux) into wildtype and ΔhssR S. aureus. A promoterless vector (plux) and a plasmid containing luxCDABE under the control of a constitutive promoter (psrtAlux) (Mazmanian, S. K., G. Liu, H. Ton-That, and O. Schneewind. 1999. “Staphylococcus aureus sortase, an enzyme that anchors surface proteins to the cell wall.” Science 285:760-763) were included as negative and positive controls, respectively. Initially, wildtype S. aureus harboring either plux, phrtABlux, or psrtAlux were plated on solid medium that either lacked heme or contained 4 μM heme. Only wildtype S. aureus containing psrtAlux produced light on solid media regardless of the presence or absence of heme. […] Light was not produced by bacteria containing plux in either condition.
To adapt this system for a HTS to measure ligand recognition by HssRS, luminescence of wildtype and ΔhssR harboring the above listed plasmids in liquid media with or without heme was measured. […] Taken together, these experiments establish a whole cell […] assay that can identify small molecule modifiers of HssRS. This screen, in some aspects, can identify molecules that can be used as molecular probes in structure-function analyses to determine the mechanism by which S. aureus sense host heme.
Upon staphylococcal exposure to heme, HssRS senses heme and activates expression of hrtAB. This process can be measured using a reporter assay that employs a vector encoding the light-producing luxCDABE operon under the control of the hrtAB promoter. This assay results in whole cell luminescence upon HssRS-dependent activation of hrtAB, forming the foundation for the development of an assay suitable for high-throughput screens for small molecule activators of HssRS.
To develop an automated HTS format, S. aureus wildtype and ΔhssR harboring reporter constructs (psrtAlux, phrtAlux, plux) can be grown for 15 hours at 37° C. in tryptic soy broth (TSB) containing 10 μg/ml chloramphenicol. The addition of chloramphenicol is useful to ensure that the staphylococci propagate the reporter plasmid upon cell division. Following growth, bacterial cultures can be normalized and 2×10^7 cells (approximately 2 μl) can be added to individual wells of black walled, clear bottomed, 96-well plates. […]

[2] = system: hrtAB-driven expression of the xylE reporter gene; assay: XylE reporter assay (hrtAB promoter-xylE), Newman; type: cell-based, Staphylococcus aureus; conditions: for XylE (0.5): level of XylE induction at 0.5 uM of the compound; for XylE (5.0): level of XylE induction at 5.0 uM of the compound; for XylE (50.0): level of XylE induction at 50.0 uM of the compound; for XylE (0.05): level of XylE induction at 0.05 uM of the compound
Description: as §1
Compounds that activate HssRS-driven hrtAB expression in the luciferase-based screen can be subjected to two separate counter screens to confirm these compounds as active hits. First, compounds of interest can be tested for their ability to activate expression of hrtAB in the XylE expression assay described hereinbelow. This is an in vitro assay that measures hrtAB-driven expression of the xylE reporter gene. The XylE-based reporter assay utilizes slightly more manipulations than the primary luciferase-based screen. […] It should be appreciated that a shortcoming of this counter screen is that it measures reporter gene expression, which is a similar activity as that measured in the primary assay. To address this shortcoming, compounds that are positive in both XylE- and luciferase-based assays can be subjected to a second counter screen as described hereinbelow.
S. aureus strains harboring the appropriate reporter construct were inoculated into 500 μl of TSB containing 10 μg/ml chloramphenicol in 1.5 ml tubes. Cultures were grown O/N at 37° C. with shaking. Bacteria were pelleted by centrifugation and spent medium was aspirated. The pellet was washed once with 500 μl of 20 mM potassium phosphate, pH 7.6, and resuspended in 150 μl of 100 mM potassium phosphate buffer, pH 8.0, 10% (v/v) acetone, 25 μg/ml lysostaphin. After 20 minute incubation at 37° C. and 5 minute incubation on ice, samples were centrifuged at 20,000 g for 30 minutes at 4° C. 1-10 μl of supernatant was added to a 96-well plate and 200 μl of 100 mM potassium phosphate, pH 8.0, 0.2 mM pyrocatechol was added to each well. Formation of 2-hydroxymuconic semialdehyde was tracked by measuring the absorbance at 375 nm every minute for 30 minutes on a Varian MP 50 microplate reader. Protein concentration in samples was determined by BCA (Pierce). One unit of specific activity of XylE in a sample is defined as the formation of 1 nmol of 2-hydroxymuconic semialdehyde per minute per milligram of cellular protein at 30° C. (Chien, Y., Manna, A. C., Projan, S. J., and Cheung, A. L. 1999, “SarA, a global regulator of virulence determinants in Staphylococcus aureus, binds to a conserved motif essential for sar-dependent gene regulation. J. Biol. Chem. 274, 37169-37176).
The hrtAB intergenic region was fused to the xylE structural gene by PCR-SOE. In the first reaction, primer P1B:[…] and P2B:[…] were used to amplify the hrtAB intergenic region from S. aureus strain Newman genomic DNA. In the second PCR reaction primers P3B:[…] and P4B:[…] were used to amplify the xylE structural gene using pALC1639 template DNA (provided by Dr. Ambrose Cheung) and PCR product purified using a Qiagen gel extraction kit. For the PCRSOE reaction, a 1:300 dilution of purified reaction 1 and reaction 2 PCR products was mixed and amplified by PCR using […]. This yielded a construct in which the hrtAB intergenic region is fused to the xylE gene in such a manner that the position of the start codon for xylE corresponds to the position of the start codon for […] in the hrtAB locus. The hrtAB promoter-xylE fusion DNA was then subcloned into pOS1. As a control we also constructed a promoterless xylE vector. The xylE gene was amplified from pACL1639 template DNA using the primers P1C:[…] and P2C:[…] and then cloned into the pOS1 vector.

| SMILES | activation at 0.0825 µM [1] [%] | Luminescence [1] | XylE (0.5) [2] | XylE (5.0) [2] | XylE (50.0) [2] | XylE (0.05) [2] |
| --- | --- | --- | --- | --- | --- | --- |
| Oc1ccccc1-c1nc(NC2CCCC2)c2ccccc2n1 | 591 | 1637 | 0.09 | 0.02 | 0 |  |
| O=C(Nc1c2c(nn1-c1ccc(Cl)cc1)CSC2)c1cccc(C(F)(F)F)c1 |  | 2866 | 0.03 | 0.04 | 0.06 |  |
| Cc1cc(O)c(NC(=S)NC(=O)c2ccc(C(C)(C)C)cc2)cc1C | 127 | 808 | 0.2 | 0.2 | 0.3 | 0.09 |
| O=C(Nc1ccncc1)c1ccc(COc2ccccc2Cl)cc1 | 478 | 1589 | 0.09 | 0 | 1 |  |
| c1cc(-c2ccc3nsnc3c2)c2cc3nsnc3cc2c1 | 347 | 1630 | 0.06 | 0 | 0.9 |  |
| COc1cc(/C=C/c2ccc3cccc(O)c3n2)c(Cl)cc1O | 533 | 1722 | 1 | 0.5 | 0 |  |
| O=C(Nc1ccncc1)c1ccc(COc2cc(Cl)ccc2Cl)cc1 | 597 | 1845 | 1 | 0.4 | 1 |  |
| O=C(Nc1ccccc1O)c1cccc(N2C(=O)c3ccc([N+](=O)[O-])cc3C2=O)c1 | 675 | 1850 | 0.02 | 0 | 0.03 |  |
| Cc1cccc(C(=O)Nc2ccc(-c3nc4ccccc4o3)cc2)c1 [drawing 27] | 294 | 837 | 0.09 | 0.08 | 0.2 | 0.07 |
| COc1ccc(/N=c2\nc(-c3ccccc3)n(-c3ccc(C)cc3)s2)cc1 | 266 | 757 | 0.04 | 0 | 0 | 0.02 |
| Oc1ccc(Nc2nc(-c3ccc(Cl)cc3)nc3ccccc23)cc1 |  | 3096 | 1 | 1 | 1 | 1 |
| Cc1c(NC(=O)c2ccc(Cl)c([N+](=O)[O-])c2)cccc1-c1nc2ccccc2o1 |  | 1912 | 0.06 | 0.1 | 0.5 |  |

From patent publication US8263642B2, “Antimicrobial compounds and methods of use thereof” (Vanderbilt University, priority 2008, dated 2012)
